{"source": "paper PMC4481117", "about": "(Molecular Pain, 2015)", "key": {"wild-type HEK293 cells": {"system": "wild-type HEK293 cells", "assay": "Adhesion of wild-type HEK293 cells to immobilized peptide", "type": "cell-based, Human", "conditions": "coated wells, calcein-labeled cells, 30 min at 37 °C", "procedure": "Fig. 3 Adhesion of Mac-1-expressing cells to Dyn A and Dyn B. a, Mac-1-expressing and wild-type HEK293 cells were labeled with calcein and 5x10^4 cells were added to the wells coated with different concentrations of the Dyn A. After 30 min at 37 °C, nonadherent cells were removed and fluorescence was measured. The data shown are means of triplicate determinations, and error bars represent S.E. The figure is representative of 8 experiments. b , adhesion of HEK293 cells expressing Mac-1, LFA and the I-less form of Mac-1 to Dyn A and Dyn B immobilized at 10 μM was determined as described in A. c, calcein-labeled Mac-1-HEK293 cells were preincubated without or with 10 μg/ml of anti-αM mAb 44a or 1 μg/ml NIF for 15 minutes. For testing the role of glucosaminoglycans in cell adhesion, dynorphin A-coated wells were preincubated with 100 μl of 10 μg/ml of chondroitin sulfate A, chondroitin sulfate B and heparin. […]\nAdhesion assays were performed essentially as described previously. […] Fluorescence was measured in a CytoFluorII fluorescence plate reader (Perceptive Biosystems, Framingham, MA). […] After aspirating the solution, labeled cells were added and cell adhesion was analyzed as above."}, "[1]": {"system": "Mac-1 (Mac-1-HEK293 cells)", "assay": "Inhibition of adhesion of Mac-1-HEK293 cells to fibrinogen by soluble peptides", "type": "cell-based, Human", "conditions": "soluble peptide 50 μM, 10 min at 22 °C; 2.5 μg/mL fibrinogen coating, 30 min at 37 °C; mean ± S.E., three experiments", "procedure": "Fig. 4 Effect of soluble Dyn A on Mac-1-mediated cell adhesion to fibrinogen. a (left ordinate), calcein-labeled Mac-1-HEK293 cells were preincubated with different concentrations of dynorphin A (black bar), dynorphin B (open bar) or control peptide (gray bar) for […] at 22 °C and added to the wells of microtiter plates coated with 2.5 μg/mL fibrinogen. Cells were allowed to adhere for 30 minutes at 37 °C before removing nonadherent cells. […] Data are expressed as a percentage of total cell fluorescence\nAdhesion assays were performed essentially as described previously. […] Cells were labeled with 10 μM calcein for 30 min at 37 °C and washed twice with Hanks’ Balanced salt solution (HBSS) containing 0.1 % BSA. Aliquots (100 μl) of labeled cells (5x10^5/ml) were added to each well and allowed to adhere for 30 min at 37 °C. The non-adherent cells were removed by two washes with PBS. Fluorescence was measured in a CytoFluorII fluorescence plate reader (Perceptive Biosystems, Framingham, MA). In inhibition experiments, cells were mixed with different concentrations of peptides, NIF or mAbs for 20 min at 22 °C before they were added to the wells coated with adhesive substrates. […] After aspirating the solution, labeled cells were added and cell adhesion was analyzed as above."}, "GST": {"system": "GST", "assay": "Solid-phase binding of GST (control)", "conditions": "immobilized Dyn A; % of the αMI-domains; not shown", "procedure": "Microtiter plates were coated with different concentrations of the fibrinogen D100 fragment or Dyn A overnight at 4 °C and post-coated with 3 % BSA for 1 h. The GST-αMI-domains in 20 mM Tris–HCl, pH 7.4, 100 mM NaCl, 1 mM MgCl2, 1 mM CaCl2, 0.05 % Tween 20, and 5 % glycerol were added to the wells and incubated for 1.5 h at 22 °C. After washing, the plates were incubated with an anti-GST mAb at a 1:5000 dilution for 1 h at 22 °C. After washing, goat anti-mouse IgG conjugated to alkaline phosphatase was added for 1 h and the binding of the αMI-domains was detected by reaction with p-nitrophenyl phosphate measuring the absorbance at 405 nm. Background binding to BSA was subtracted."}, "cells": {"system": "cells", "conditions": "cited from earlier work"}}}
{"smiles": "CC[C@H](C)[C@H](NC(=O)[C@H](CCCNC(=N)N)NC(=O)[C@H](CCCNC(=N)N)NC(=O)[C@H](CC(C)C)NC(=O)[C@H](Cc1ccccc1)NC(=O)CNC(=O)CNC(=O)[C@@H](N)Cc1ccc(O)cc1)C(=O)N[C@@H](CCCNC(=N)N)C(=O)N1CCC[C@H]1C(=O)N[C@@H](CCCCN)C(=O)N[C@@H](CC(C)C)C(=O)N[C@@H](CCCCN)C(=O)N[C@@H](Cc1c[nH]c2ccccc12)C(=O)N[C@@H](CC(=O)O)C(=O)N[C@@H](CC(N)=O)C(=O)N[C@@H](CCC(N)=O)C(=O)O", "note": "[Dyn A]", "values": [{"measurement": "Adhesion of wild-type HEK293 cells (in words)", "setting": "wild-type HEK293 cells", "value": "adhered only slightly"}, {"measurement": "Inhibition of adhesion to fibrinogen", "setting": "[1]", "value": "67 ± 2", "unit": "%"}, {"measurement": "Binding of GST to Dyn A relative to the αMI-domains", "setting": "GST", "value": "less than 5%"}, {"measurement": "Cell entry", "setting": "cells", "value": "enters the cells"}]}
